Earlier results as cited in patent US8716182B2, “Liquid aqueous crop protection formulations” (BASF SE, priority 2008, dated 2014).

Settings: miscible means fully miscible with water

Compound | solubility in water at 20° C.
O=C1CCCO1 [γ-butryrolacton, γ-butyrolactone] | (miscible)
CC(=O)OCC(COC(C)=O)OC(C)=O [triacetin] | (64 g/l)
CCCOC(=O)C(C)O (stereo not shown) [Purasolv ® NPL, n-propyl lactate] | (miscible)
COCC(C)OC(C)=O (stereo not shown) [Arcosolv ® PMA, 1-methoxy-2-propanol acetate] | acetate)(400 g/l)
OCC1CCCO1 (stereo not shown) [tetrahydrofurfuryl alcohol] | (miscible)
OCCOc1ccccc1 [Agrisol PX401, 2-phenoxyethanol] | (24 g/l)
C[S+](C)[O-] [DMSO, dimethyl sulfoxide] | (miscible)
